US11597917B2, “In vitro and in vivo enrichment strategy targeting lymphocytes derived from vector transduced HSCs for therapy of disorders” (THE MEDICAL COLLEGE OF WISCONSIN, INC., priority 2017, dated 2023)

Columns and labels:
[1] = system: Fabry mice; assay: In vivo enrichment in Fabry mice engrafted with transduced HSPCs: observation of toxicities; conditions: 0.15% MMF medicated chow ad libitum, 2 months of treatment
Experimental: Briefly, male and female Fabry mice aged 2-5 months of age are treated with 5-fluorouracil (5-FU) to deplete bone marrow cells and enrich for HSPCs. Four days after treatment these mice are euthanized, and bone marrow is isolated from femurs and tibia, and processed for transduction. Cells are cultured in stem cell media and transduced using lentivirus described above for 12 hours at a multiplicity of infection (MOI) of 10. Transduced cells are then harvested and prepared for administration to recipient mice. Recipients are male Fabry mice aged approximately 2 months. These are irradiated prior to engrafting transduced cells to deplete their own hematopoietic system. Some cells are retained in culture for an extra 48 hours to assay transduction. Mice are kept on prophylactic antibiotics as support during immune recovery. Engraftment of transduced cells is assessed by measuring VCN/genome in circulation using a qPCR-based assay and comparing to a standard curve, and by measuring plasma α-gal A activity. MMF medicated chow may be started after stable engraftment has been achieved, typically after 4 months. […] A baseline bleed was done to confirm engraftment and the mice were given 0.15% MMF capsule (TEVA generics, Israel) medicated chow ad libitum, and bled every 15 days to observe changes in plasma α-gal A activity, which is a measure of enrichment. […]

[2] = system: Jurkat cells; assay: In vitro enrichment of transduced Jurkat cells with MPA: vector copy number per genome by qPCR; assay type: cell-based; conditions: Jurkat cells transduced with dual promoter vector; 0.5 μM MPA vs DMSO, 16 days; FIG. 4C
Experimental: (§1) In this Example, Jurkat cells (immortalized T cells) are used. […] 3 cell lines were generated by transducing Jurkat cells with the vectors described or with protamine sulphate only as a mock. VCN/genome was adjusted by dilution of the transduced cells with mock transduced cells. Each of these were seeded in 4 replicates and either treated with DMSO (vehicle) or 0.5 μM MPA. Fresh media with drug or vehicle was added after centrifuging the cells and discarding old media every two days. Samples were taken for cell counts. After 16 days of treatment, cells were reseeded for recovery in fresh media for a total of four days, after which they were counted and reseeded again for two days for α-gal A activity assay or one day for gDNA.
VCN was determined by comparison to a standard curve using a qPCR based method and normalized to the number of beta actin (ACTB) copies to determine a per genome value. Patterned bars in the chart refer to samples treated with DMSO and solid bars refer to those treated with MPA.

[3] = system: Jurkat cells; assay: Glucocerebrosidase activity in supernatant of transduced Jurkat cells after MPA enrichment (fluorometric assay); assay type: cell-based; conditions: cells transduced with GBA+(IY) virus and treated with MPA (0.5 μM, 16 days); FIG. 13
Experimental: Jurkat cells were transduced with lentivirus at an MOI of ˜0.1-0.2. Cells were cultured for at least 2 weeks prior to measuring baseline vector copy number. Cell lines for each of LV/GBA+eGFP and LV/GBA+(IY), or non-transduced cells were produced in this way. To measure enrichment, testing was carried out as described in Example 2. Briefly, cells at known densities were seeded in quadruplicate for each cell line, and maintained in culture for 16 days with either vehicle (DMSO) or 0.5 μM MPA, with media being replaced every two days. After treatment, cells were diluted and recovered for 4-8 days. gDNA was extracted from cells sampled from each well, and vector copy number analyses were carried out using qPCR. Cells from each well were also seeded at known and equal densities for 72 hours, after which supernatant was collected, cleared of cells and debris, and glucocerebrosidase activity measured using a fluorometric assay. Briefly, supernatants were incubated for 1 hour with substrate solution containing 4-methylumbelliferyl-beta-D-glucopyranoside (15 mM). The reaction was quenched with 0.1M glycine at pH 10 and fluorescence of the reaction product quantified against a calibration curve of the product.

[4] = system: Jurkat cells; assay: α-gal A activity (4-MUG substrate) in lysates and supernatants of transduced Jurkat cells after MPA enrichment; assay type: cell-based; conditions: Jurkat cells transduced with dual promoter vector; 0.5 μM MPA, 16 days, then recovery; FIGS. 4E and 4F
Experimental: as §1

Compound | drug-related toxicities [1] | increase in the vector copy number of the total population per genome [2] | enzyme activity in cell culture supernatant [3] | α-gal A activity in cell lysates and culture supernatants [4]
COc1c(C)c2c(c(O)c1C/C=C(\C)CCC(=O)OCCN1CCOCC1)C(=O)OC2 [MMF, mycophenolate mofetil] | No drug-related toxicities were observed | – | – | –
COc1c(C)c2c(c(O)c1C/C=C(\C)CCC(=O)O)C(=O)OC2 [MPA, mycophenolic acid] | – | ~8 fold | increased enzyme activity | corresponding increase in α-gal A activity
